{
  "source": "patent US11844801B2",
  "about": "“Oral compositions of MK2 pathway inhibitor for treatment of immune conditions” (priority 2020, dated 2023)",
  "key": {"TNF-α, IL-6, and IL-8": {"tested_on": "TNF-α, IL-6, and IL-8", "test": "Ex vivo IL-1β-induced TNF-α, IL-6 and IL-8 in blood of dosed healthy subjects", "settings": "human", "method": "Methods: Safety, pharmacokinetics (PK) and pharmacodynamics (PD) were assessed in two cohorts of subjects in a randomized, observer-blind, placebo-controlled study in male and female healthy subjects aged 18-55 (n=77). The study consisted of twenty (20) subjects enrolled into 2 cohorts. […] The final dose was administered in the morning on Day 7. Blood samples were obtained Day 1—before dosing, Day 1—4 hours after dosing and Day 1—12 hours after dosing and Day 7—before dosing, Day 7—4 hours after dosing, day 7—12 hour after dosing and Day 7—24 hours after dosing for each subject."}, "[1]": {"test": "Phase 2a ATI-450 plus MTX in moderate to severe rheumatoid arthritis: clinical activity (DAS28-CRP, ACR20/50/70, joint counts, hsCRP)", "assay_type": "in vivo, human", "settings": "50 mg BID plus MTX"}, "[2]": {"test": "13-week oral administration non-clinical safety study, mini-pig", "assay_type": "in vivo", "settings": "for Cmax / AUC(0-t): 60 mg/kg/day oral; for AUC(0-t): read-out: AUC0-24", "experimental": "Study Design. […] Rats were administered 0 (vehicle), 3, 10 and 30 mg/kg/day, and Mini-pigs were administered 0 (vehicle) 10, 30 and 60 mg/kg/day"}, "[3]": {"tested_on": "TNF-α, IL-1β, IL-6, and IL-8", "test": "Phase 2a RA study: ex vivo LPS-stimulated cytokines in patient blood", "design": "species or system human", "settings": "50 mg BID, 12 weeks"}, "TNF-α": {"tested_on": "TNF-α", "test": "Ex vivo LPS-stimulated TNF-α in blood of dosed healthy subjects, PK/PD inhibitory Emax model", "design": "species or system human", "experimental": "Blood samples of 10 mL were collected for PD analysis. For the SAD cohorts, blood was collected before dosing and 1, 12, and 24 hours after dosing. For the MAD cohorts, on day 1 blood was collected before the morning dose and 4 and 12 hours after the morning dose (prior to the evening dose); on day 7, blood was collected before the morning dose and 4 and 12 hours after the morning dose.\nAdditional details of the assays for analyzing p-HSP27 and cytokines are included in the Supplementary Information.\nPharmacodynamics. PD data analysis was conducted using Microsoft Excel 2010 (Microsoft, Redmond, WA), Meso Scale Discovery Workbench® analysis software (Rockville, MD), and Phoenix WinNonlin, version 8.2.\nSample Preparation for Cytokine Analysis. For each sample, 180 μL aliquots were transferred into 7 wells of a round bottom 96 well tissue culture polystyrene low evaporation plate. […] No outer wells on the plates were used and all wells surrounding the samples contained 200 μL of phosphate buffered saline.\nDMSO was added to all wells in groups ‘A’ and ‘C’ to a final concentration of 0.1% ([…] of a 2% DMSO solution in DMEM containing 10% FBS and 1% penicillin/streptomycin/glutamine). […] Samples were mixed gently for 30 seconds on a plate shaker using pin tools, then placed in an incubator at 37° C./5% CO2 for 1 hour.\nSamples in groups ‘A’ and ‘B’ were stimulated with lipopolysaccharide at a final concentration of 100 ng/mL. A stock solution of lipopolysaccharide at 1 mg/mL in DMEM containing 10% FBS and 1% penicillin/streptomycin was diluted to […] in DMEM containing 10% FBS and 1% penicillin/streptomycin, and […] of this working solution was added per well of blood for all samples in groups ‘A’ and ‘B’. […] of DMEM containing 10% FBS only was added per well of blood for all samples in group ‘C’ (unstimulated samples). Samples were mixed gently for 30 seconds on a plate shaker using pin tools, then placed in an incubator at 37° C./5% CO2 for 5 hours.\nFollowing the incubation, the plates were removed from the incubator and sealed with adhesive clear plate seals. The plates were then centrifuged for 10 minutes at 1800×g at room temperature. […] of plasma was removed from each well and transferred to a 96-well polypropylene round bottom master plate, which was then sealed and frozen at −80° C. until all samples from the respective cohort were generated. Once all samples from a given cohort were generated, the samples were analyzed for cytokine (TNF-α, IL-1b, IL-6, and IL-8) production using Meso Scale Discovery Technology.\nAnalysis of Cytokine Levels Using Meso Scale Discovery Technology. All lipopolysaccharide plasma samples were analyzed for cytokine production with a V-Plex Human Proinflammatory Panel II (4-Plex) Kit from Meso Scale Discovery (Rockville, MD). The master plates containing the plasma samples were thawed on ice, and a daughter plate consisting of a 25-fold dilution of each plasma sample (3 μL of plasma plus 72 μL of Meso Scale Discovery Diluent 2) was generated for each master plate. The diluted plasma samples from the daughter plates were used in the cytokine analysis. The Meso Scale Discovery 4-plex plates were washed 3 times with 150 μL/well of wash buffer (1×KPL phosphate buffered saline with Tween 20 from SeraCare [Milford, MA]). Prepared calibrators and the samples from the daughter plates were added to the washed Meso Scale Discovery 4-plex plates at 50 μL/well. The 4-plex plates were sealed and shaken overnight at 4° C.\nAfter the overnight incubation, the samples were removed by decanting. The 4-plex plates were then washed 3 times with 150 μL/well of wash buffer. […]"}, "[4]": {"tested_on": "p-HSP27, TNF-α, IL-1β, IL-6 and IL-8", "test": "Ex vivo LPS-stimulated p-HSP27 and cytokines in dosed healthy subjects, summary statements over several analytes", "design": "species or system human", "settings": "SAD and MAD cohorts", "experimental": "Blood samples of 10 mL were collected for PD analysis. For the SAD cohorts, blood was collected before dosing and 1, 12, and 24 hours after dosing. For the MAD cohorts, on day 1 blood was collected before the morning dose and 4 and 12 hours after the morning dose (prior to the evening dose); on day 7, blood was collected before the morning dose and 4 and 12 hours after the morning dose. […] Additional details of the assays for analyzing p-HSP27 and cytokines are included in the Supplementary Information. Pharmacodynamics. PD data analysis was conducted using Microsoft Excel 2010 (Microsoft, Redmond, WA), Meso Scale Discovery Workbench® analysis software (Rockville, MD), and Phoenix WinNonlin, version 8.2."}, "[5]": {"tested_on": "regulatory T cells (CD45+ CD3+ CD4+ Foxp3+)", "test": "Murine collagen-induced arthritis model, T regulatory cells in popliteal lymph nodes", "assay_type": "in vivo, mouse", "settings": "1000 ppm chow from day 18, murine CIA model", "experimental": "In this model DBA/1 mice (12/group) were immunized with bovine collagen/CFA to induce arthritis. […] At day 21, mice were boosted with bovine collagen/CFA, and at day 35 the study was terminated. Popliteal lymph nodes were dissected from mice, cleaned of any trace fat, mechanically dissociated and filtered through 70 micron cell strainers. Live lymphocytes were counted using a Moxi GO II cell counter (Orflo). One million lymphocytes were plated, treated with Fc block, and stained with antibodies targeting surface receptors (including CD45, CD3, CD4) along with a fixable live/dead dye. Cells were fixed/permeabilized (eBioscience Transcription Factor Staining kit) and stained with anti-Foxp3 antibody. The cells were collected via flow cytometry analysis on an Attune NxT instrument. T-regulatory cells were gated as lymphocyte-sized, live, CD45+ CD3+ CD4+ Foxp3+ cells."}, "[6]": {"settings": "female, minipig, in vivo, study day 90, females"}, "[7]": {"settings": "male, minipig, in vivo, study day 90, males"}},
  "note": "Entries after “also recorded” stand apart in the source; their conditions may differ. Read-outs that look alike come from different tables or passages of the source.",
  "data": [
    {"smiles": "Cc1cnc(-c2ccnc(C(C)(C)O)n2)cc1-n1c(C)cc(OCc2ncc(F)cc2F)c(Cl)c1=O", "note": "(single isomer, unassigned) [ATI-450, 3-chloro-4-((3,5-difluoropyridin-2-yl)methoxy)-2′-(2-(2-hydroxypropan-2-yl)pyrimidin-4-yl)-5′,6-dimethyl-2H-[1,4′-bipyridin]-2-one]", "values": [
      {"measurement": "ex vivo IL-1β-induced TNF-α, IL-6, and IL-8", "setting": "TNF-α, IL-6, and IL-8", "value": "potently inhibits"},
      {"measurement": "swollen and tender joint count over time", "setting": "[1]; 84 days", "value": "sustained decrease in swollen joint count and tender joint count"},
      {"measurement": "DAS28-CRP change from baseline over time", "setting": "[1]; through day 84", "value": "rapid and sustained onset of efficacy"},
      {"measurement": "hsCRP change from baseline over time", "setting": "[1]; through day 84", "value": "rapid and sustained reduction in hsCRP"},
      {"measurement": "median reduction from baseline in hsCRP", "setting": "[1]; throughout the 12 weeks", "value": "> 40", "unit": "%"},
      {"measurement": "mean change from baseline in DAS28-CRP (reduction)", "setting": "[1]; week 12", "value": 2.0},
      {"measurement": "ACR20 response", "setting": "[1]; week 12, 15 subjects", "value": 60, "unit": "%"},
      {"measurement": "ACR50 response", "setting": "[1]; week 12, 15 subjects", "value": 33, "unit": "%"},
      {"measurement": "ACR70 response", "setting": "[1]; week 12, 15 subjects", "value": 20, "unit": "%"},
      {"measurement": "proportion of subjects with DAS28-CRP <2.6 (remission)", "setting": "[1]; week 12, 15 subjects", "value": 20, "unit": "%"},
      {"measurement": "proportion of subjects with DAS28-CRP ≤ 3.2 (low disease activity or remission)", "setting": "[1]; week 12, 15 subjects", "value": 40, "unit": "%"},
      {"measurement": "mortality", "setting": "[2]; 13-week oral, up to 60 mg/kg/day", "value": "No study drug-related mortality was observed"},
      {"measurement": "Cmax", "setting": "[2]; [6]", "value": 2360, "unit": "ng/mL"},
      {"measurement": "AUC(0-t)", "setting": "[2]; [6]", "value": 22600, "unit": "ng·h/mL"},
      {"measurement": "Cmax", "setting": "[2]; [7]", "value": 1670, "unit": "ng/mL"},
      {"measurement": "AUC(0-t)", "setting": "[2]; [7]", "value": 14400, "unit": "ng·h/mL"},
      {"measurement": "non-adverse findings, haematology", "setting": "[2]; males at ≥10 mg/kg/day and females at 60 mg/kg/day", "value": "Slightly increased neutrophil, lymphocyte and platelet counts"},
      {"measurement": "NOAEL at 13 weeks", "setting": "[2]; minipig, in vivo, 13-week oral, read-out: no-observed adverse effect level (NOAEL)", "value": 60, "unit": "mg/kg/day"},
      {"measurement": "ex vivo stimulated cytokines in RA patient blood", "setting": "[3]", "value": "sustained inhibition of proinflammatory cytokines; also recorded: marked and durable inhibition"},
      {"measurement": "TNF-α inhibition versus baseline", "setting": "TNF-α; 50 mg BID MAD cohort", "value": "up to 92.7%"},
      {"measurement": "Cmax (Multiple of IC80)", "setting": "TNF-α; 50 mg BID, day 7", "value": 3.5, "unit": "x"},
      {"measurement": "Ctrough (Multiple of IC80)", "setting": "TNF-α; 50 mg BID, day 7", "value": 1.4, "unit": "x"},
      {"measurement": "IC80", "setting": "TNF-α; Homo sapiens, calculated from IC50, combined SAD and MAD data, read-out: IC80, plasma concentration at 80% of maximal inhibition", "value": 0.0626, "unit": "µg/mL"},
      {"measurement": "IC50", "setting": "TNF-α; Homo sapiens, inhibitory Emax model, combined SAD and MAD data, read-out: IC50, plasma concentration at half maximal inhibition", "value": 0.0156, "unit": "µg/mL"},
      {"measurement": "IC80, plasma concentration at 80% of maximal inhibition", "setting": "TNF-α; calculated from IC50, combined SAD and MAD data", "value": 0.0626, "unit": "µg/mL"},
      {"measurement": "modulation of p-HSP27 and inhibition of production of TNF-α, IL-1β, IL-6, and IL-8", "setting": "[4]", "value": "concentration-dependent and dose-dependent modulation"},
      {"measurement": "number of regulatory T cells", "setting": "[5]", "value": "significantly increased the number of regulatory T cells"}
    ]}
  ]
}
